Source: ChEMBL document CHEMBL4715696, “In vitro synergistic anticancer activity of the combination of T-type calcium channel blocker and chemotherapeutic agent in A549 cells” (Bioorg Med Chem Lett, 2016)

Key:
A549 [1] = assay: Potentiation of etoposide-induced apoptosis in human A549 cells assessed as early apoptotic cells at 10 uM incubated for 48 hrs by AnnexinV-FITC/propidium iodide staining based flow cytometry (reference value: 19.1%); type: functional
A549 [2] = assay: Decrease in cell cycle associated protein expression in human A549 cells assessed as reduction in cyclin E expression at 10 uM by Western blot analysis; type: functional, cell-based; conditions: time 6-48 hrs, TDE = time-dependent effect
A549 [3] = assay: Decrease in cell cycle associated protein expression in human A549 cells assessed as reduction in CDK2 expression at 10 uM by Western blot analysis; type: functional, cell-based; conditions: time 6-48 hrs, TDE = time-dependent effect
A549 [4] = assay: Decrease in cell cycle associated protein expression in human A549 cells assessed as fold change in cyclin D1 expression at 5 uM after 48 hrs by Western blot analysis (reference value: 0.39); type: functional
A549 [5] = assay: Induction of cell cycle arrest in human A549 cells assessed as accumulation at sub G1 phase at 2.5 uM after 48 hrs by flow cytometric analysis (Rvb =1.9 %); type: functional
A549 [6] = assay: Decrease in cell cycle associated protein expression in human A549 cells assessed as reduction in cyclin D2 expression after 48 hrs by Western blot analysis; type: functional, cell-based; conditions: dose 2.5-10 µM
A549 [7] = assay: Upregulation of p27KIP1 protein expression in human A549 cells after 48 hrs by Western blot analysis; type: functional, cell-based; conditions: dose 2.5-10 µM
A549 [8] = assay: Decrease in cell cycle associated protein expression in human A549 cells assessed as fold change in cyclin D2 expression at 10 uM after 12 hrs by Western blot analysis (reference value: 0.77); type: functional
A549 [9] = assay: Decrease in cell cycle associated protein expression in human A549 cells assessed as fold change in CDK4 expression at 10 uM after 12 hrs by Western blot analysis (reference value: 0.87); type: functional
A549 [10] = assay: Decrease in cell cycle associated protein expression in human A549 cells assessed as fold change in cyclin D3 expression at 10 uM after 6 hrs by Western blot analysis (reference value: 1.09); type: functional
A549 [11] = assay: Decrease in cell cycle associated protein expression in human A549 cells assessed as reduction in CDK6 expression after 48 hrs by Western blot analysis; type: functional, cell-based; conditions: dose 2.5-10 µM
A549 [12] = assay: Induction of cell cycle arrest in human A549 cells assessed as accumulation at sub G1 phase at 5 uM after 48 hrs by flow cytometric analysis (reference value: 1.9 to 4.9%); type: functional
CYP1A2 = biological target: T1, CYP1A2 (Homo sapiens, UniProt P05177); assay: Inhibition of human CYP1A2 assessed as residual activity at 10 uM measured after 15 mins relative to control; type: ADME; conditions: read-out: Activity
T1 sequence (P05177 whole entry): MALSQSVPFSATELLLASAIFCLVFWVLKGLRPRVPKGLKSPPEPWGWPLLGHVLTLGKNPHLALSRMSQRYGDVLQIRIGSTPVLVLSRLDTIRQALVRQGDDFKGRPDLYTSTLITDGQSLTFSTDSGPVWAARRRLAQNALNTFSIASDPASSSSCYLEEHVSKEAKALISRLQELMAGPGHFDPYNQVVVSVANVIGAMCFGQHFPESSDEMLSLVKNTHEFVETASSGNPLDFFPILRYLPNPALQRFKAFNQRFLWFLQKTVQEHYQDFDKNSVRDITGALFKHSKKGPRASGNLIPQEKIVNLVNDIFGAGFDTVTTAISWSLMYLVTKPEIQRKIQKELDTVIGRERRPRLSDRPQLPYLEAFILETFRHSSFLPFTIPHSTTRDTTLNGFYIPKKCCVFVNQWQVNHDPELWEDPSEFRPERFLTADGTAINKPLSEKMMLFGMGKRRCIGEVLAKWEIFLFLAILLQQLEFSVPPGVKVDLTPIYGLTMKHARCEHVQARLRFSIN

A549 [13] = assay: Decrease in cell cycle associated protein expression in human A549 cells assessed as fold change in cyclin E expression at 2.5 uM after 48 hrs by Western blot analysis (reference value: 0.37); type: functional
A549 [14] = assay: Decrease in cell cycle associated protein expression in human A549 cells assessed as fold change in cyclin D2 expression at 2.5 uM after 48 hrs by Western blot analysis (reference value: 0.46); type: functional
A549 [15] = assay: Decrease in cell cycle associated protein expression in human A549 cells assessed as fold change in cyclin D2 expression at 10 uM after 36 hrs by Western blot analysis (reference value: 0.77); type: functional
[16] = Permeability of the compound by PAMPA assay; type: ADME; conditions: read-out: permeability
A549 [17] = assay: Potentiation of cisplatin-induced cell cycle arrest in human A549 cells assessed as accumulation at S phase at 10 uM in presence of cisplatin after 48 hrs by flow cytometric analysis (Rvb =15.8%); type: functional
A549 [18] = assay: Potentiation of etoposide-induced cell cycle arrest in human A549 cells assessed as accumulation at S phase at 10 uM in presence of etoposide after 48 hrs by flow cytometric analysis (Rvb =12.3%); type: functional
A549 [19] = assay: Decrease in cell cycle associated protein expression in human A549 cells assessed as fold change in cyclin D3 expression at 2.5 uM after 48 hrs by Western blot analysis (reference value: 0.73); type: functional
A549 [20] = assay: Decrease in cell cycle associated protein expression in human A549 cells assessed as reduction in CDK4 expression at 10 uM by Western blot analysis; type: functional, cell-based; conditions: time 6-48 hrs, TDE = time-dependent effect
A549 [21] = assay: Decrease in cell cycle associated protein expression in human A549 cells assessed as fold change in CDK2 expression at 5 uM after 48 hrs by Western blot analysis (reference value: 0.48); type: functional
A549 [22] = assay: Potentiation of etoposide-induced apoptosis in human A549 cells assessed as late apoptotic cells at 10 uM incubated for 48 hrs by AnnexinV-FITC/propidium iodide staining based flow cytometry (reference value: 12.6%); type: functional
A549 [23] = assay: Potentiation of etoposide-induced cell cycle arrest in human A549 cells assessed as accumulation at G2/M phase at 5 uM in presence of etoposide after 48 hrs by flow cytometric analysis (Rvb =18.9%); type: functional
A549 [24] = assay: Decrease in cell cycle associated protein expression in human A549 cells assessed as fold change in cyclin D3 expression at 5 uM after 48 hrs by Western blot analysis (reference value: 0.73); type: functional
A549 [25] = assay: Decrease in cell cycle associated protein expression in human A549 cells assessed as fold change in cyclin E expression at 10 uM after 24 hrs by Western blot analysis (reference value: 0.55); type: functional
A549 [26] = assay: Decrease in cell cycle associated protein expression in human A549 cells assessed as reduction in CDK2 expression after 48 hrs by Western blot analysis; type: functional, cell-based; conditions: dose 2.5-10 µM
[27] = Increase in recruitment of […] p27KIP1 to CDK6 in human A549 cells assessed as fold change at 10 uM incubated for 12 hrs by immunoprecipitation/immunoblot analysis (reference value: 0.56); type: functional
A549 [28] = assay: Induction of cell cycle arrest in human A549 cells assessed as accumulation at G2/M phase at 10 uM after 48 hrs by flow cytometric analysis (reference value: 22.1%); type: functional
A549 [29] = assay: Induction of cell cycle arrest in human A549 cells assessed as accumulation at G1 phase at 10 uM after 48 hrs by flow cytometric analysis (reference value: 65.5%); type: functional
[30] = Protein binding in rat plasma at 10 uM after 4 hrs; type: ADME, cell-free; conditions: read-out: PPB (converted)

CN(C)C(=O)NCCCN(C)C1=Nc2ccccc2C(CC(=O)NCc2ccc(F)cc2)N1c1ccc(C2CCCCC2)cc1 (stereo unspecified)
Activity (A549 [1]): 49.1% | Activity (A549 [2]): Tde | Activity (A549 [3]): Tde | fold change (FC) (A549 [4]): 0.5 | Activity (A549 [5]): 1.3% | Activity (A549 [6]): Dose-dependent effect | Activity (A549 [7]): Dose-dependent effect | fold change (FC) (A549 [8]): 0.36 | fold change (FC) (A549 [9]): 0.61 | fold change (FC) (A549 [10]): 1.23 | Activity (A549 [11]): Dose-dependent effect | Activity (A549 [12]): 1% | activity at 0.25 h, 10 µM (CYP1A2): 59.2% | fold change (FC) (A549 [13]): 0.44 | fold change (FC) (A549 [14]): 0.61 | fold change (FC) (A549 [15]): 0.61 | Papp [16]: < 1.5 ×10⁻⁶ cm/s | Activity (A549 [17]): 6.1% | Activity (A549 [18]): 6.2% | fold change (FC) (A549 [19]): 0.74 | Activity (A549 [20]): Tde | fold change (FC) (A549 [21]): 0.46 | Activity (A549 [22]): 12.9% | Activity (A549 [23]): 13.4% | fold change (FC) (A549 [24]): 0.77 | fold change (FC) (A549 [25]): 0.08 | Activity (A549 [26]): Dose-dependent effect | fold change (FC) [27]: 0.68 | Activity (A549 [28]): 10.9% | Activity (A549 [29]): 77.4% | fraction unbound at 4 h, 10 µM [30]: < 0.01
